Data from patent US20120010075A1 (priority 2009, published 2012).
Where two headings read alike, the source gives them in different places.

Tests used:
[1] = system: Leptosphaeria nodorum (LEPTNO); assay: In vitro fungitoxicity of hydrazones with and without copper towards Leptosphaeria nodorum (Example 26); format: cell-based; conditions: 72 h at 25° C.; for inhibition of growth at 0.05 µg/mL: Parastagonospora nodorum, 72 h, read-out: LEPTNO % Inhn. Minus Copper Observed; for inhibition of growth at 0.05 µg/mL / LEPTNO % Inhn. Minus Copper Observed: copper-minus medium
Phytophthora infestans = format: in vivo, Phytophthora infestans on tomato; conditions: applied 24 h before inoculation, assessed 7 days after inoculation
[2] = test compound Concn. 0.05 μg/mL
[3] = copper-plus medium (CuCl2 10 μM), test compound Concn. 0.05 μg/mL
[4] = hydrazone 50 ppm with 50 μM CuCl2.2H2O, tomato late blight
[5] = compound 0.05 μg/mL, copper-plus medium (CuCl2.2H2O)
[6] = hydrazone 50 ppm + 50 μM CuCl2.2H2O, tomato

Structure (SMILES)	inhibition of growth at 0.05 µg/mL [1, 2] [%]	LEPTNO % Inhn. Plus Copper Observed [1, 3] [%]	TLB % Control (Phytophthora infestans; [4]) [%]	melting point [°C]	inhibition of growth at 0.05 µg/mL ([1]; compound 0.05 μg/mL) [%]	LEPTNO % Inhn. Plus Copper Observed [1, 5] [%]	TLB % Control (Phytophthora infestans; [6]) [%]	LEPTNO % Inhn. Minus Copper Observed ([1]; compound 0.05 μg/mL) [%]
C/C(=N\NC(=O)c1ccc(C(F)(F)F)cc1)c1cc(F)cc(F)c1O [Example 581]	13.6	98.2	93.0	287 to 291				
Cc1cccc(C(=O)N/N=C/c2cc(Cl)cc(Br)c2O)c1O [Example 165]				218 to 221	14.9	98.4	88.4	
C/C(=N\NC(=O)c1cccc(C)c1)c1cc(F)cc(F)c1O [Example 574]	2.8	98.3	93.0	215 to 216				
COc1ccc(/C(C)=N/NC(=O)c2ccccc2Br)c(O)c1OC [Example 561]	0	92.2	60.0	195 to 200				
O=C(N/N=C/c1cc(Cl)cc(Cl)c1O)c1ccc2ccccc2c1O [Example 488]	20.1	92.6	72.0	276 to 278				
Cc1ccc(C(=O)N/N=C/c2cc(C(F)(F)F)ccc2O)cc1 [Example 436]	14.6	98.2	94.0	245 to 249				
O=C(N/N=C/c1c(O)cc(Cl)cc1Cl)c1ccccc1 [Example 242]				273 to 274	6.9	98.0	78.0	
O=C(N/N=C/c1cc(C(F)(F)F)cc(Cl)c1O)c1cccc(Cl)c1 [Example 325]	0	95.7	100.0	210 to 212				
O=C(N/N=C/c1c(O)cccc1C(F)(F)F)c1ccccc1 [Example 297]	0	96.4	69.5	228 to 230				
COc1ccc(C(=O)N/N=C(\C)c2cccc([N+](=O)[O-])c2O)cc1 [Example 521]	5	95.9	83.0	204 to 212				
C/C(=N\NC(=O)c1cccc(Br)c1)c1cc(Cl)cc(Cl)c1O [Example 138]				247 to 253	4	98.1	91.0	
O=C(N/N=C/c1c(Cl)ccc(Cl)c1O)c1cccc(F)c1 [Example 367]	13.1	97.9	95.0	203 to 209				
COc1ccc(/C(C)=N/NC(=O)c2ccc(Cl)cc2)c(O)c1 [Example 286]				227 to 229	2.3	98.4	75.0	
COc1ccc(C(=O)N/N=C(\C)c2cc(Cl)ccc2O)cc1 [Example 511]	0	97.8	73.0	203 to 228				
C/C(=N\NC(=O)c1ccccc1C)c1cc(C)ccc1O [Example 312]	3.8	97.8	1.4	154 to 156				
O=C(N/N=C/c1cc(Cl)cc(Br)c1O)c1cc(Cl)ccc1Cl [Example 196]				169 to 173	4.4	97.7	94.5	
COc1ccc(/C(C)=N/NC(=O)c2ccccc2O)c(O)c1OC [Example 562]	1.4	97.3	91.0	279 to 297				
Cc1cccc(C(=O)N/N=C/c2ccc(Cl)c(Cl)c2O)c1 [Example 354]	18.4	95.4	98.0	212 to 214				
Cc1ccc(C(=O)N/N=C/c2ccc(Cl)c(Cl)c2O)cc1 [Example 355]	19.6	89.8	87.0	254 to 256				
Cc1ccc(C(=O)N/N=C/c2ccc(Cl)cc2O)cc1 [Example 388]	17.2	98.1	61.0	258 to 260				

Structure (SMILES)	inhibition of growth at 0.05 µg/mL [1, 2] [%]	LEPTNO % Inhn. Plus Copper Observed [1, 3] [%]	TLB % Control (Phytophthora infestans; [4]) [%]	melting point [°C]	inhibition of growth at 0.05 µg/mL ([1]; compound 0.05 μg/mL) [%]	LEPTNO % Inhn. Plus Copper Observed [1, 5] [%]	TLB % Control (Phytophthora infestans; [6]) [%]	LEPTNO % Inhn. Minus Copper Observed ([1]; compound 0.05 μg/mL) [%]
O=C(N/N=C/c1cccc(C(F)(F)F)c1O)c1cccc(F)c1 [Example 345]	18.8	97.9	97.0	176 to 180				
O=C(N/N=C(/c1cc(Cl)cc(Cl)c1O)C1CC1)c1ccccc1 [Example 589]	8.7	97.9	61.0	218 to 219				
Cc1cccc(C(=O)N/N=C/c2c(C(F)(F)F)ccc(Cl)c2O)c1 [Example 447]	20	96.6	100.0	219 to 221				
C/C(=N\NC(=O)c1ccc(C)cc1C)c1ccccc1O [Example 33]				188 to 190		93.1	50.9	0.0
Cc1ccc(C(=O)N/N=C/c2cc(Br)cc(Br)c2O)c(C)c1 [Example 32]				192 to 194		94.4	74.6	0.0
O=C(N/N=C/c1cc(Cl)cc(C(F)(F)F)c1O)c1ccc(F)cc1 [Example 379]	26.7	98.2	100.0	227 to 228				
C/C(=N\NC(=O)c1ccccc1)c1cc(Br)cc(Br)c1O [Example 539]	1.6	98.0	100.0	242 to 245				
C/C(=N\NC(=O)c1ccc(C(F)(F)F)cc1)c1cc(Br)ccc1O [Example 518]	24.2	97.4	58.0	272 to 280				
O=C(N/N=C/c1cc(Br)cc(Br)c1O)c1cc(Cl)cc(Cl)c1 [Example 117]				267 to 269	28.8	98.5	89.5	
N#Cc1ccc(C(=O)N/N=C/c2cc(Cl)cc(Cl)c2O)cc1 [Example 310]	2.4	96.6	64.0	234 to 270				
C/C(=N\NC(=O)c1cc2ccccc2cc1O)c1cc(Cl)cc(Cl)c1O [Example 564]	17.4	94.2	1.3	312 to 315				
O=C(N/N=C/c1cc(Cl)cc(Br)c1O)c1cccc([N+](=O)[O-])c1 [Example 416]	4.3	97.5	93.0	167 to 226				
C/C(=N\NC(=O)c1ccc(Cl)cc1)c1cc(Cl)ccc1O [Example 510]	6.2	95.5	56.0	248 to 252				
C/C(=N\NC(=O)c1ccccc1)c1cc(Br)ccc1O [Example 287]				204 to 208	0	98.3	65.0	
Cc1ccc(C(=O)N/N=C/c2cc(C(F)(F)F)cc(C(F)(F)F)c2O)cc1 [Example 333]	16.2	93.2	85.0	274 to 277				
COc1cc(O)c(/C(C)=N/NC(=O)c2ccccc2C)c(OC)c1 [Example 584]	3	11.8	7.6	269 to 274				
C/C(=N\NC(=O)c1cccc(C)c1)c1cccc([N+](=O)[O-])c1O [Example 270]				235 to 239	6.9	98.6	61.0	
O=C(N/N=C/c1cc(Cl)cc(C(F)(F)F)c1O)c1cccc([N+](=O)[O-])c1 [Example 382]	19.3	98.5	96.0	235 to 237				
Cc1cc(C)cc(C(=O)N/N=C/c2cc(Cl)ccc2O)c1 [Example 134]				196 to 199	4.2	95.3	57.0	
O=C(N/N=C/c1cc(C(F)(F)F)ccc1O)c1ccc(F)cc1 [Example 438]	0	94.2	98.0	229 to 231				
